Experimental data: patent publication US20180169242A1, “PHARMACEUTICAL COMBINATION FOR CANCER TREATMENT AND THE THERAPEUTIC USE THEREOF” (Shiner Pharm Corp., priority 2016, published 2018)

Tested on: Lewis lung carcinoma cells
Test: Local tumor growth (tumor volume) in Lewis lung carcinoma animal model
Type: in vivo, C57BL/6 mice
Settings: metformin 200 mg/kg/day, fluvastatin 80 mg/kg/day
Method: Lewis lung carcinoma (LLC) model was established.
The cancer inhibiting effect of metformin and statin was examined. After the mice were sacrificed, tumor volume on the right thigh of the mice was measured to deteiiiiine local tumor growth.

## CN(C)C(=N)N=C(N)N [metformin]
No irradiation, day 7 to day 11, tumor volume on right thigh at day 21
  therapeutic effect on tumor volume compared with the sham group: did not exhibit any therapeutic effect
With 40 Gy irradiation in two 20 Gy fractions (day 8, day 10), compared with RT alone, RT+M and RT+S, day 21
  local tumor growth / tumor volume when combined with radiotherapy: neither combining radiotherapy with metformin alone or with statin alone could suppress local tumor growth
